Measurements as given in US20120129843A1, “PYRIDYL-THIAZOLYL INHIBITORS OF PRO-MATRIX METALLOPROTEINASE ACTIVATION” (priority 2010, published 2012).
Counter-ions that a name gives are not always drawn.

Assays:
[1] = biological target: T1, proMMP9(20-445;ΔFnII) (SEQ ID NO:6) (Homo sapiens, UniProt P14780, DEL216-390); assay: ThermoFluor binding assay with proMMP9(20-445;ΔFnII)
T1 construct: start methionine (N); made in house; host or cells: E. coli BL21(DE3) RIL
T1 sequence (P14780 with tags, fused parts or gaps DEL216-390): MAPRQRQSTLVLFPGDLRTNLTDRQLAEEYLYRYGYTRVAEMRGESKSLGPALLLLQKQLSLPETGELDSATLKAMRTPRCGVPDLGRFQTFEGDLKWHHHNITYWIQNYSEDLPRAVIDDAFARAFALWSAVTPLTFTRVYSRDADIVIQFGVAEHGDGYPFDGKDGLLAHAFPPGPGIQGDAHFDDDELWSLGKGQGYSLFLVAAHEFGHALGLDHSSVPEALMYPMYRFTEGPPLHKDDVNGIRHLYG
Procedure: (§1) The ThermoFluor® (TF) assay is a 384-well plate-based binding assay that measures thermal stability of proteins (Biomol Screen 2001, 6, 429-40; Biochemistry 2005, 44, 5258-66). The experiments were carried out using instruments available from Johnson & Johnson Pharmaceutical Research & Development, LLC. TF dye used in all experiments was […] (1,8-ANS) (Invitrogen: A-47).
(§2) Compounds were arranged in a pre-dispensed plate (Greiner Bio-one: 781280), wherein compounds were serially diluted in 100% DMSO across 11 columns within a series. Columns 12 and 24 were used as DMSO reference and contained no compound. For multiple compound concentration-response experiments, the compound aliquots ([…]) were robotically predispensed directly into black 384-well polypropylene PCR microplates (Abgene: TF-0384/k) using a Cartesian Hummingbird liquid handler (DigiLab, Holliston, Mass.). Following compound dispense, protein and dye solutions were added to achieve the final assay volume of 3 μL. The assay solutions were overlayed with 1 μL of silicone oil (Fluka, type DC 200: 85411) to prevent evaporation.
(§3) Assay plates were robotically loaded onto a thermostatically controlled PCR-type thermal block and then heated from 40 to 90° C. at a ramp-rate of 1° C./min for all experiments. Fluorescence was measured by continuous illumination with UV light (Hamamatsu LC6) supplied via fiber optics and filtered through a band-pass filter (380-400 nm; >60D cutoff). Fluorescence emission of the entire 384-well plate was detected by measuring light intensity using a CCD camera (Sensys, Roper Scientific) filtered to detect 500±25 nm, resulting in simultaneous and independent readings of all 384 wells. A single image with 20-sec exposure time was collected at each temperature, and the sum of the pixel intensity in a given area of the assay plate was recorded vs temperature and fit to standard equations to yield the Tm (J Biomol Screen 2001, 6, 429-40).
(§4) Thermodynamic parameters necessary for fitting compound binding for each proMMP were estimated by differential scanning calorimetry (DSC) and from ThermoFluor® data. The heat capacity of unfolding for each protein was estimated from the molecular weight and from ThermoFluor® dosing data.
ThermoFluor® with proMMP9(20-445;ΔFnII) (SEQ ID NO:6)
The protein sample preparations included a desalting buffer exchange step via a PD-10 gravity column (GE Healthcare). The desalting buffer exchange was performed prior to diluting the protein to the final assay concentration of 2.8 μM proMMP9(20-445;ΔFnII) (SEQ ID NO:6). The concentration of proMMP9(20-445;ΔFnII) (SEQ ID NO:6) was determined spectrophotometrically based on a calculated extinction coefficient of ε280=39880 M^−1cm^−1, a calculated molecular weight of 28.2 kDa, and calculated pI of 5.5. ThermoFluor® reference conditions were define as follows: 80 μg/mL (2.8 μM) proMMP9(20-445;ΔFnII) (SEQ ID NO:6), 50 μM 1,8-ANS, pH 7.0 Buffer (50 mM HEPES pH 7.0, 100 mM NaCl, 0.001% Tween-20, 2.5 mM MgCl2, 300 μM CaCl2). The thermodynamic parameters for proMMP9(20-445;ΔFnII) (SEQ ID NO:6) are as follows: Tm (° C.)=72 (+/−0.1), ΔUH(Tm) (cal mol^−1)=160000(+/−5000), ΔUS(Tm) (cal mol^−1 K^−1)=434, ΔUCp (cal mol^−1 K^−1)=2400.

[2] = biological target: T2, proMMP9(67-444;ΔFnII) (SEQ ID NO:5) (Homo sapiens, UniProt P14780, DEL216-390); assay: ThermoFluor binding assay with proMMP9(67-444;ΔFnII)
T2 construct: start methionine (N); made in house; host or cells: E. coli BL21(DE3) RIL
T2 sequence (P14780 with tags, fused parts or gaps DEL216-390): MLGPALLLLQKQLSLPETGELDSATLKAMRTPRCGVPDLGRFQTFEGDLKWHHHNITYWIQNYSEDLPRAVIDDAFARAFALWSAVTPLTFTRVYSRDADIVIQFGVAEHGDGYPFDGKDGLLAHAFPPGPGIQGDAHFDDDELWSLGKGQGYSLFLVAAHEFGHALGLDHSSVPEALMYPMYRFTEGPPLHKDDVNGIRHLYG
Procedure: as §1, §2, §3, §4
ThermoFluor® with proMMP9(67-444;ΔFnII) (SEQ ID NO:5)
The protein sample preparations had to include a desalting buffer exchange step via a PD-10 gravity column (GE Healthcare). The desalting buffer exchange was performed prior to diluting the protein to the final assay concentration of 3.5 μM proMMP9(67-444;ΔFnII) (SEQ ID NO:5). The concentration of proMMP9(67-444;ΔFnII) (SEQ ID NO:5) was determined spectrophotometrically based on a calculated extinction coefficient of ε280=33900 M^−1cm^−1, a calculated molecular weight of 22.6 kDa, and calculated pI of 5.20. ThermoFluor® reference conditions were defined as follows: 80 μg/mL (3.5 μM) proMMP9(67-444;ΔFnII) (SEQ ID NO:5), 50 μM 1,8-ANS, pH 7.0 Buffer (50 mM HEPES pH 7.0, 100 mM NaCl, 0.001% Tween-20, 2.5 mM MgCl2, 300 μM CaCl2). The thermodynamic parameters for proMMP9(67-444;ΔFnII) (SEQ ID NO:5) are as follows: Tm (° C.)=63 (+/−0.1), ΔUH(Tm) (cal mol^−1)=105000(+/−5000), ΔUS(Tm) (cal mol^−1 K^−1)=[…], ΔUCp (cal mol^−1 K^−1)=2000.

[3] = biological target: T3, full-length proMMP9(1-707) (SEQ ID NO:1), activation by catalytic MMP3 (Homo sapiens, UniProt P14780, R574P); assay: proMMP9/MMP3 P126 Activation Assay; format: biochemical
T3 construct: made in house; host or cells: HEK293 (proMMP9, secreted); E. coli (MMP3)
Procedure: proMMP9/MMP3 P126 Activation Assay
The reaction volume was 50 μL. […] Reactivity of residual MMP3 towards P-126 substrate was minimal under these conditions.

T3 sequence (P14780 20-707 R574P): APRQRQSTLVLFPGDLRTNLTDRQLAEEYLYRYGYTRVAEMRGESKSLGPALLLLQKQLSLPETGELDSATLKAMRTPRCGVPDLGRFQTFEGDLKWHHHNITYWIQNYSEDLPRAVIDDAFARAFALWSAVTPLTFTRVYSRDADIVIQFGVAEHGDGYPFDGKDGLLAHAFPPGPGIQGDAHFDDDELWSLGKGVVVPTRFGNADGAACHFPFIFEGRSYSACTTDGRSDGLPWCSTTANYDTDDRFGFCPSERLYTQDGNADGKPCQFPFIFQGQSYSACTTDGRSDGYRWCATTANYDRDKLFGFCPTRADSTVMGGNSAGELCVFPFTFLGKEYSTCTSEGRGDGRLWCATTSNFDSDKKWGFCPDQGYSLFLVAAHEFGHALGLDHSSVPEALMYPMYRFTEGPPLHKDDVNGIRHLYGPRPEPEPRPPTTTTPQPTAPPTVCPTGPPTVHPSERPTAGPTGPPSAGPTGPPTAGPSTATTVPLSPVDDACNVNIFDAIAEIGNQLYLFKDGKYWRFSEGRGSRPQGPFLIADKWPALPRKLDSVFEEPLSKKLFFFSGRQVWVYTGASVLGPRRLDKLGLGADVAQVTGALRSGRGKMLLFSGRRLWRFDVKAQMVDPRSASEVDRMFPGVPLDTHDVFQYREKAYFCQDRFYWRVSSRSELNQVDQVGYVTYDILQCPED

| Kd [1] | Kd [2] | IC50 [3] | Compound |
| --- | --- | --- | --- |
| 310 nM |  | 140 nM | CC(C)Oc1ccc(S(N)(=O)=O)cc1Nc1nc(-c2ccc(N3CCN(S(C)(=O)=O)CC3)nc2)cs1 [Example 83, 4-Isopropoxy-3-((4-(6-(4-(methylsulfonyl)piperazin-1-yl)pyridin-3-yl)thiazol-2-yl)amino)benzenesulfonamide.TFA] |
| 360 nM |  | ~2000 nM | CCOC(=O)CCNC(=O)c1ccc(-c2csc(Nc3cc(S(N)(=O)=O)ccc3OC(C)C)n2)cn1 [Example 87, Ethyl 3-(5-(2-((2-isopropoxy-5-sulfamoylphenyl)amino)thiazol-4-yl)picolinamido)propanoate.TFA] |
| 260 nM |  | 330 nM | CC(C)Oc1ccc(S(N)(=O)=O)cc1Nc1nc(-c2ccc(C(=O)NC3CCN(C(C)C)CC3)nc2)cs1 [Example 88, 5-(2-((2-Isopropoxy-5-sulfamoylphenyl)amino)thiazol-4-yl)-N-(1-isopropylpiperidin-4-yl)picolinamide.TFA] |
| 360 nM |  | 350 nM | CC(C)Oc1ccc(S(N)(=O)=O)cc1Nc1nc(-c2ccc(C(=O)NC3CCCN(C)C3)nc2)cs1 (stereo not shown) [Example 89, 5-(2-((2-Isopropoxy-5-sulfamoylphenyl)amino)thiazol-4-yl)-N-(1-methylpiperidin-3-yl)picolinamide.TFA] |
| 970 nM |  | 1700 nM | COCCNC(=O)c1ccc(-c2csc(Nc3cc(S(N)(=O)=O)ccc3OC(C)C)n2)cn1 [Example 90, 5-(2-((2-Isopropoxy-5-sulfamoylphenyl)amino)thiazol-4-yl)-N-(2-methoxyethyl)picolinamide.TFA] |
| 2400 nM |  | 640 nM | CC(C)Oc1ccc(S(N)(=O)=O)cc1Nc1nc(-c2ccc(C(=O)NCC3CCOCC3)nc2)cs1 [Example 91, 5-(2-((2-Isopropoxy-5-sulfamoylphenyl)amino)thiazol-4-yl)-N-((tetrahydro-2H-pyran-4-yl)methyl)picolinamide.TFA] |
| 1900 nM |  | 590 nM | CC(C)Oc1ccc(S(N)(=O)=O)cc1Nc1nc(-c2ccc(C(=O)NC3CCOCC3)nc2)cs1 [Example 96, 5-(2-((2-Isopropoxy-5-sulfamoylphenyl)amino)thiazol-4-yl)-N-(tetrahydro-2H-pyran-4-yl)picolinamide.TFA] |
|  | 410 nM | > 20000 nM | COC(=O)c1ccc(-c2csc(Nc3cc(S(N)(=O)=O)ccc3OC(C)C)n2)cn1 [Intermediate 12, 5-[2-(2-Isopropoxy-5-sulfamoyl-phenylamino)-thiazol-4-yl]-pyridine-2-carboxylic acid methyl ester.TsOH] |

Continued, molecule first:

| Compound | Kd [1] | Kd [2] | IC50 [3] |
| --- | --- | --- | --- |
| COc1cc(C(N)=O)ccc1Nc1nc(-c2cccnc2)cs1 [Example 6, 3-Methoxy-4-(4-pyridin-3-yl-thiazol-2-ylamino)-benzamide] | 70000 nM | 11000 nM | 11000 nM |
| COc1cc(C)c(C(N)=O)cc1Nc1nc(-c2ccc(N3CCN(C)CC3)nc2)cs1 [Example 7, 4-Methoxy-2-methyl-5-{4-[6-(4-methyl-piperazin-1-yl)-pyridin-3-yl]-thiazol-2-ylamino}-benzamide.TFA] | 1200 nM | 3900 nM | 2400 nM |
| CC(C)Cc1ccc(C(N)=O)cc1Nc1nc(-c2ccc(N3CCN(C)CC3)nc2)cs1 [Example 8, 4-Isobutyl-3-{4-[6-(4-methyl-piperazin-1-yl)-pyridin-3-yl]-thiazol-2-ylamino}-benzamide.TFA] | 370 nM | 2900 nM | 1800 nM |
| CC(C)Oc1ccc(S(C)(=O)=O)cc1Nc1nc(-c2cccnc2)cs1 [Example 10, (2-Isopropoxy-5-methanesulfonyl-phenyl)-(4-pyridin-3-yl-thiazol-2-yl)-amine.TFA] | 660 nM | 3500 nM | 2600 nM |
| CCS(=O)(=O)c1ccc(OC)c(Nc2nc(-c3cccnc3)cs2)c1 [Example 11, (5-Ethanesulfonyl-2-methoxy-phenyl)-(4-pyridin-3-yl-thiazol-2-yl)-amine.TFA] | 5900 nM | 16000 nM |  |
| CC(C)Oc1ccc(C#N)cc1Nc1nc(-c2cccnc2)cs1 [Example 16, 4-Isopropoxy-3-(4-pyridin-3-yl-thiazol-2-ylamino)-benzonitrile.HBr] | 20000 nM | 2900 nM | 3200 nM |
| CC(C)Oc1ccc(C(N)=O)cc1Nc1nc(-c2ccnc(N3CCN(C)CC3)c2)cs1 [Example 28, 4-Isopropoxy-3-{4-[2-(4-methyl-piperazin-1-yl)-pyridin-4-yl]-thiazol-2-ylamino}-benzamide.TFA] | 82 nM | 990 nM | 210 nM |
| COc1ccc(S(N)(=O)=O)cc1Nc1nc(-c2ccc(N3CCN(C)CC3)nc2)cs1 [Example 29, 4-Methoxy-3-{4-[6-(4-methyl-piperazin-1-yl)-pyridin-3-yl]-thiazol-2-ylamino}-benzenesulfonamide] | 930 nM | 1600 nM | 1400 nM |
| CC(C)Oc1ccc(S(N)(=O)=O)cc1Nc1nc(-c2ccc(C(=O)NC3CN4CCC3CC4)nc2)cs1 (stereo not shown) [Example 86, 5-(2-((2-Isopropoxy-5-sulfamoylphenyl)amino)thiazol-4-yl)-N-(1-azabicyclo[2.2.2]octan-3-yl)picolinamide.TFA] | 460 nM |  | 400 nM |
| COCCCN(C)c1ccc(-c2csc(Nc3cc(S(N)(=O)=O)ccc3OC(C)C)n2)cn1 [Example 92, 4-Isopropoxy-3-((4-(6-((3-methoxypropyl)(methyl)amino)pyridin-3-yl)thiazol-2-yl)amino)benzenesulfonamide.TFA] | 450 nM |  | 230 nM |
